Experimental data reported in US20050009005A1, “Methods of using quantitative lipid metabolome data” (Lipomics Technologies, Inc., priority 2001, published 2005).

How the values were obtained:
[1] = Body and adipose tissue weight of CL316,243-treated mice (trial 2, FIG. 3); format: in vivo
Excerpt: FIG. 3 is a pair of bar graphs showing the body (FIG. 3a) and adipose (FIG. 3b) weights of mice treated with CL316,243 (hatched bars), and corresponding controls(solid bars).
In trial 2, male, inbred NON mice were fed a control with or without the presence of the β-3 adrenergic agonist CL316,243 for four weeks (at 0.001% CL316,243 by weight in the dietary chow).
In both studies, five treated and five control mice were used. Following the treatments and the killing of the mice, tissues and plasma were taken, chilled to −80 ° C. and shipped to the analysis laboratory at Lipomics Technologies in a frozen state.
Tables 7 and 8 show the concentrations of lipid metabolites present in adipose, plasma, heart and liver tissues in mice treated with CL3 16,243 and their controls. In Tables 5 and 7, the data are expressed as nanomoles per gram of tissue or plasma. In tables 6 and 8, the data are expressed as a percentage of total fatty acids within each lipid class.

[2] = patients taking rosiglitazone; Fuchtenbebusch et al. 2000; cited from earlier work

Row | Compound | mouse body weight ([1]; CL316,243 4 weeks vs controls (FIG. 3a)) | adipose tissue weight ([1]; CL316,243 4 weeks vs controls (FIG. 3b)) | body weight of patients [2]
1 | C[C@H](Cc1ccc2c(c1)OC(C(=O)[O-])(C(=O)[O-])O2)NC[C@H](O)c1cccc(Cl)c1.[Na+].[Na+] [CL316,243] | significant decrease | significant decrease | –
2 | CN(CCOc1ccc(CC2SC(=O)NC2=O)cc1)c1ccccn1 (stereo not drawn) [rosiglitazone] | – | – | gain weight
